The first assay has as its system HCV replicon (NS5A1b) in Huh-7 cells. The assay is described as follows: microbe, parasite or virus in culture. In kind it is cell-based. The conditions noted are these: Hepatitis C virus, 72 h; NS5A1b; HCV replicon-containing Huh-7 cells, three days; read-out: EC50 (μM) NS5A1b. The method, then:
Compounds claimed herein are tested for the ability to inhibit viral replication of the Hepatitis C replicon in cultured cells in which the HCV replicon construct has been incorporated. The HCV replicon system was described by Bartenschlager, et. al (Science, 285, pp. 110-113 (1999)). The replicon system is predictive of in vivo anti-HCV activity; compounds that are active in humans uniformly evidence activity in the replicon assay.
In this assay HCV replicon containing cells are treated with different concentrations of the test compound to ascertain the ability of the test compound to suppress replication of the HCV replicon. As a positive control, HCV replicon-containing cells are treated with different concentrations of interferon alpha, a known inhibitor of HCV replication. The replicon assay system includes Neomycin Phosphotransferase (NPT) as a component of the replicon itself in order to detect the transcription of replicon gene products in the host cell. Cells in which the HCV replicon is actively replicating have high levels of NPT; the level of NPT is proportional to HCV replication. […] The NPT level of each sample is measured using a captured ELISA.
A protocol for testing compounds for the ability to inhibit viral replication of the Hepatitis C replicon cultured cells in which the replicon construct has been incorporated, follows.
The HCV replicon contains, 5′-3′, the HCV-IRES, the neomycin phosphotransferase (neo) gene, the IRES of encephalomyocarditis virus, which directs translation of HCV sequences NS3 to NS5B, and the 3′-NTR. The sequence of the HCV replicon has been deposited in GenBank (Accession no. AJ242652).
The replicon is transfected into Huh-7 cells using standard methods such as electroporation.
The equipment and materials include, but are not limited to, Huh-7 HCV replicon-containing cells, maintenance media (DMEM (Dulbecco's modified Eagle media) supplemented with 10% FBS, L-glutamine, non-essential amino acids, penicillin (100 units/ml), streptomycin (100 micrograms/ml), and 500 micrograms/ml of Geneticin (G418), screening media (DMEM supplemented with 10% FBS, L-glutamine, non-essential amino acids, penicillin (100 units/ml) and streptomycin (100 micrograms/ml), 96 well tissue culture plates (flat bottom), 96 well plates (U bottom for drug dilution), Interferon alpha for positive control, fixation reagent (such as methanol: acetone), primary antibody (rabbit anti-NPTII), secondary antibody: Eu-N1 1, and enhancement solution.
HCV replicon-containing cells support high levels of viral RNA replicon replication when their density is suitable. Over-confluency causes decreased viral RNA replication. Therefore, cells must be kept growing in log phase in the presence of 500 micrograms/ml of G418. Generally, cells should be passed twice a week at 1:4-6 dilution. Cell maintenance is conducted as follows:
HCV replicon-containing cells are examined under a microscope to ensure that cells growing well. Cells are rinsed once with PBS and 2 ml trypsin is added. The cell/trypsin mixture is incubated at 37° C. in a CO2 incubator for 3-5 minutes. After incubation 10 ml of complete media is added to stop the trypsinization reaction. Cells are blown gently, put into a 15 ml tube, and spun at 1200 rpm for 4 minutes. The trypsin/medium solution is removed. Medium (5 ml) is added and the cells are mixed carefully. The cells are counted.
The cells are then seeded onto 96-well plates at a density of 6000-7500 cells/100 microliters/well (6-7.5×10^5 cells/10 ml/plate). The plates are then incubated at 37° C. in a 5% CO2 incubator.
Cells are examined under a microscope approximated 24 hours after seeding and prior to adding drugs. If counting and dilution were performed correctly, cells are 60-70% confluent and nearly all cells should attach and spread evenly in the well.
HCV replicon-containing cells are rinsed with once PBS once; 2 mls of trypsin are then added. Cells are incubated at 37° C. in a 5% CO2 incubator for 3-5 minutes. […]
As usually defined, the EC50 is the concentration giving half of the maximal effect. On to `COC(=O)N[C@H](C(=O)N1CCC[C@H]1c1nc2cc(-c3cc4ccc3CCc3ccc(c(-c5ccc6[nH]c([C@@H]7CCCN7C(=O)[C@@H](NC(=O)OC)c7ccccc7)nc6c5)c3)CC4)ccc2[nH]1)c1ccccc1` [Compound 49], for which the EC50 was found to be 10.2 nM.

Consider `COC(=O)N[C@H](C(=O)N1C[C@H](C)C[C@H]1c1nc2cc(-c3cc4ccc3CCc3ccc(c(-c5ccc6[nH]c([C@@H]7C[C@@H](C)CN7C(=O)[C@@H](NC(=O)OC)C(C)C)nc6c5)c3)CC4)ccc2[nH]1)C(C)C` [Compound 66], for which the concentration for a half-maximal effect (EC50) is 0.005 nM.

As for `COC(=O)N1CCC[C@H]1C(=O)N1CCC[C@H]1c1nc2cc(-c3cc4ccc3CCc3ccc(c(-c5ccc6[nH]c([C@@H]7CCCN7C(=O)[C@@H]7CCCN7C(=O)OC)nc6c5)c3)CC4)ccc2[nH]1` [Compound 51], the concentration giving a half-maximal response (EC50) was above 1000 nM.

For the molecule `COC(=O)N[C@H](C(=O)N1[C@H](c2nc3cc(-c4cc5ccc4CCc4ccc(c(-c6ccc7[nH]c([C@@H]8C[C@@H]9CCCC[C@@H]9N8C(=O)[C@@H](NC(=O)OC)C(C)C)nc7c6)c4)CC5)ccc3[nH]2)C[C@@H]2CCCC[C@@H]21)C(C)C` [Compound 43], the EC50 was 2.85 nM.

On to `C=CCOC(=O)N[C@@H](CCSC)C(=O)N1CCC[C@H]1c1nc(-c2ccc(-c3cc4ccc3CCc3ccc(c(-c5ccc(-c6c[nH]c([C@@H]7CCCN7C(=O)[C@H](CCSC)NC(=O)OCC=C)n6)cc5)c3)CC4)cc2)c[nH]1` [Compound 57], for which the EC50 is above 1000 nM.

As for `C=CCOC(=O)N1CCC[C@H]1C(=O)N1CCC[C@H]1c1nc(-c2ccc(-c3cc4ccc3CCc3ccc(c(-c5ccc(-c6c[nH]c([C@@H]7CCCN7C(=O)[C@@H]7CCCN7C(=O)OCC=C)n6)cc5)c3)CC4)cc2)c[nH]1` [Compound 58], the concentration giving a half-maximal response (EC50) is above 1000 nM.

Consider `COC(=O)N[C@H](C(=O)N1[C@H](c2nc(-c3ccc(-c4cc5ccc4CCc4ccc(c(-c6ccc(-c7c[nH]c([C@@H]8C[C@@H]9CCCC[C@@H]9N8C(=O)[C@@H](NC(=O)OC)C(C)C)n7)cc6)c4)CC5)cc3)c[nH]2)C[C@@H]2CCCC[C@@H]21)C(C)C` [Compound 60], for which the half-maximal effective concentration (EC50) is 128 nM.

On to `C=CCOC(=O)N[C@H](C(=O)N1CCC[C@H]1c1nc(-c2ccc(-c3cc4ccc3CCc3ccc(c(-c5ccc(-c6c[nH]c([C@@H]7CCCN7C(=O)[C@@H](NC(=O)OCC=C)c7ccccc7)n6)cc5)c3)CC4)cc2)c[nH]1)c1ccccc1` [Compound 59], for which the EC50 worked out at 548 nM.

Regarding `COC(=O)N1CCC[C@H]1C(=O)N1[C@H](c2nc(-c3ccc(-c4cc5ccc4CCc4ccc(c(-c6ccc(-c7c[nH]c([C@@H]8C[C@@H]9CCCC[C@@H]9N8C(=O)[C@@H]8CCCN8C(=O)OC)n7)cc6)c4)CC5)cc3)c[nH]2)C[C@@H]2CCCC[C@@H]21` [Compound 63], the EC50 amounted to 899 nM.

Consider `COC(=O)N[C@@H](CCC#N)C(=O)N1[C@H](c2nc3cc(-c4cc5ccc4CCc4ccc(c(-c6ccc7[nH]c([C@@H]8C[C@@H]9CCCC[C@@H]9N8C(=O)[C@H](CCC#N)NC(=O)OC)nc7c6)c4)CC5)ccc3[nH]2)C[C@@H]2CCCC[C@@H]21` [Compound 110], for which the EC50 turned out to be 0.006 nM.

With `COC(=O)N[C@H](C(=O)N1[C@H](c2nc3cc(-c4cc5ccc4CCc4ccc(c(-c6ccc7[nH]c([C@@H]8C[C@@H]9CCCC[C@@H]9N8C(=O)[C@@H](NC(=O)OC)[C@@H](C)O)nc7c6)c4)CC5)ccc3[nH]2)C[C@@H]2CCCC[C@@H]21)[C@@H](C)O` [Compound 128], the half-maximal effective concentration (EC50) turned out to be 0.008 nM.

Turning to `COC(=O)N[C@H](C(=O)N1[C@H](c2nc3cc(-c4cc5ccc4CCc4ccc(c(-c6ccc7[nH]c([C@@H]8C[C@@H]9CCCC[C@@H]9N8C(=O)[C@@H](NC(=O)OC)[C@@H](C)OC)nc7c6)c4)CC5)ccc3[nH]2)C[C@@H]2CCCC[C@@H]21)[C@@H](C)OC` [Compound 111], the EC50 came out at 0.005 nM.

For `COC(=O)N[C@H](C(=O)N1CCC[C@H]1c1ncc(-c2ccc(C34CC(c5ccc(-c6cnc([C@@H]7CCCN7C(=O)[C@@H](NC(=O)OC)C(C)C)[nH]6)cc5)(C3)C4)cc2)[nH]1)C(C)C` [Compound 44], the concentration giving a half-maximal response (EC50) was found to be 4.08 nM.

Consider `C=CCOC(=O)N[C@H](C(=O)N1CCC[C@H]1c1nc(-c2ccc(-c3cc4ccc3CCc3ccc(c(-c5ccc(-c6c[nH]c([C@@H]7CCCN7C(=O)[C@@H](NC(=O)OCC=C)C(C)C)n6)cc5)c3)CC4)cc2)c[nH]1)C(C)C` [Compound 55], for which the concentration giving a half-maximal response (EC50) was above 1000 nM.

Regarding `COC(=O)N[C@H](C(=O)N1CCC[C@H]1c1nc(-c2ccc(-c3cc4ccc3CCc3ccc(c(-c5ccc(-c6c[nH]c([C@@H]7CCCN7C(=O)[C@@H](NC(=O)OC)c7ccccc7)n6)cc5)c3)CC4)cc2)c[nH]1)c1ccccc1` [Compound 52], the EC50 was found to be 9.83 nM.

In the case of `COC(=O)N[C@@H](CCSC)C(=O)N1[C@H](c2nc(-c3ccc(-c4cc5ccc4CCc4ccc(c(-c6ccc(-c7c[nH]c([C@@H]8C[C@@H]9CCCC[C@@H]9N8C(=O)[C@H](CCSC)NC(=O)OC)n7)cc6)c4)CC5)cc3)c[nH]2)C[C@@H]2CCCC[C@@H]21` [Compound 61], the EC50 worked out at 75.2 nM.

As for `COC(=O)N[C@H](C(=O)N1CCC[C@H]1c1nc(-c2ccc(-c3cc4ccc3CCc3ccc(c(-c5c[nH]c([C@@H]6CCCN6C(=O)[C@@H](NC(=O)OC)C(C)C)n5)c3)CC4)cc2)c[nH]1)C(C)C` [Compound 47], the 50% effective concentration (EC50) was determined as 5.02 nM.

As for `COC(=O)N[C@H](C(=O)N1CCC[C@H]1c1nc2cc(-c3cc4ccc3CCc3ccc(c(-c5ccc6[nH]c([C@@H]7CCCN7C(=O)[C@@H](NC(=O)OC)C(C)C)nc6c5)c3)CC4)ccc2[nH]1)C(C)C` [Compound 45], the EC50 was below 3.2 nM.

As for `COC(=O)N[C@@H](CCSC)C(=O)N1CCC[C@H]1c1nc(-c2ccc(-c3cc4ccc3CCc3ccc(c(-c5ccc(-c6c[nH]c([C@@H]7CCCN7C(=O)[C@H](CCSC)NC(=O)OC)n6)cc5)c3)CC4)cc2)c[nH]1` [Compound 53], the 50% effective concentration (EC50) came out at 211 nM.

On to `COC(=O)N1CCC[C@H]1C(=O)N1CCC[C@H]1c1nc(-c2ccc(-c3cc4ccc3CCc3ccc(c(-c5ccc(-c6c[nH]c([C@@H]7CCCN7C(=O)[C@@H]7CCCN7C(=O)OC)n6)cc5)c3)CC4)cc2)c[nH]1` [Compound 54], for which the EC50 is above 1000 nM.

Take `COC(=O)N[C@H](C(=O)N1C(c2nc3ccc(-c4cc5ccc4CCc4ccc(c(-c6ccc7nc(C8C[C@@H]9CCCC[C@@H]9N8C(=O)[C@@H](NC(=O)OC)C(C)C)n(COC(=O)[C@@H](N)C(C)C)c7c6)c4)CC5)cc3n2COC(=O)[C@@H](N)C(C)C)C[C@@H]2CCCC[C@@H]21)C(C)C` (some centres unmarked) [Compound 130]: the EC50 came to 0.009 nM.

Turning to `COC(=O)N[C@H](C(=O)N1CCC[C@H]1c1nc(-c2ccc(-c3cc4ccc3CCc3ccc(c(-c5ccc(-c6c[nH]c([C@@H]7CCCN7C(=O)[C@@H](NC(=O)OC)C(C)C)n6)cc5)c3)CC4)cc2)c[nH]1)C(C)C` [Compound 40], the EC50 amounted to 0.012 nM.

For the molecule `COC(=O)N[C@H](C(=O)N1CCC[C@H]1c1nc(-c2ccc(-c3cc4c(-c5c[nH]c([C@@H]6CCCN6C(=O)[C@@H](NC(=O)OC)C(C)C)n5)cc3CCc3ccc(cc3)CC4)cc2)c[nH]1)C(C)C` [Compound 46], the EC50 is below 3.17 nM.

On to `COC(=O)N[C@H](C(=O)N1[C@H](c2nc(-c3ccc(-c4cc5ccc4CCc4ccc(c(-c6ccc(-c7c[nH]c([C@@H]8C[C@@H]9CCCC[C@@H]9N8C(=O)[C@@H](NC(=O)OC)c8ccccc8)n7)cc6)c4)CC5)cc3)c[nH]2)C[C@@H]2CCCC[C@@H]21)c1ccccc1` [Compound 62], for which the EC50 worked out at 75 nM.

Still in this assay, the particulars now being: Hepatitis C virus, Huh-7; Example 9 replicon assay; read-out: EC50 values in HCV replicon assay.
Consider `CC(C)(C)OC(=O)Nc1ccc(B2OC(C)(C)C(C)(C)O2)cc1NC(=O)OC(C)(C)C` [Compound 25, di-tert-butyl (4-(4,4,5,5-tetramethyl-1,3,2-dioxaborolan-2-yl)-1,2-phenylene)dicarbamate], for which the EC50 is at most 10000 nM.

On to `COC(=O)N[C@H](C(=O)N1CCC[C@H]1c1nc(-c2ccc(-c3cc4ccc3CCc3ccc(c(-c5ccc(-c6c[nH]c([C@@H]7CCCN7C(=O)[C@@H](NC(=O)OC)C(C)C)n6)cc5)c3)CC4)cc2)c[nH]1)C(C)C` [Compound 40], for which the EC50 was at most 10000 nM.

Source of the values: patent publication US10092547B2, “Substituted aliphanes, cyclophanes, heteraphanes, heterophanes, hetero- heteraphanes and metallocenes useful for treating HCV infections” (priority 2011, dated 2018).
